# Experimental data from the NIST ThermoML archive (doi:10.1021/acs.jced.8b00011).
# Several values for one entry are separate records, joined by “and”; a condition that tells them apart may be missing. Equal entries are not always repeated. Numbers after ± are expanded uncertainties.
# Conditions: Liquid; for mass density: Vibrating tube method; for electrical conductivity: electrochemical impedance spectroscopy
smiles,measurement,setting,value
CCCCC[P+](CC)(CC)CC.O=S(=O)([N-]S(=O)(=O)C(F)(F)F)C(F)(F)F,viscosity,"273.15 K, 100 kPa, Concentric cylinders viscometry",391.1 ± 13 mPa·s
same,viscosity,"273.15 K, 100 kPa, Falling or rolling sphere viscometry",396.2 ± 28 mPa·s and 396 ± 28 mPa·s
same,mass density,"273.15 K, 100 kPa",1323.74 ± 1.9 kg/m3 and 1324 ± 1.9 kg/m3 and 1323.6 ± 1.3 kg/m3
same,electrical conductivity,"273.15 K, 101.33 kPa",0.0399 S/m and 0.04 S/m
same,viscosity,"278.15 K, 100 kPa, Concentric cylinders viscometry",275.6 ± 8.5 mPa·s
same,viscosity,"278.15 K, 100 kPa, Falling or rolling sphere viscometry",278.3 ± 16 mPa·s and 278.2 ± 16 mPa·s
same,mass density,"278.15 K, 100 kPa",1319.92 ± 1.9 kg/m3 and 1319.6 ± 1.9 kg/m3 and 1319.31 ± 1.3 kg/m3
same,electrical conductivity,"278.15 K, 101.33 kPa",0.0556 S/m and 0.0557 S/m
same,electrical conductivity,"283.14 K, 149300 kPa, Frequency=0 MHz",0.0123 ± 0.00025 S/m
same,electrical conductivity,"283.14 K, 174300 kPa, Frequency=0 MHz",0.00927 ± 0.00019 S/m
same,viscosity,"283.15 K, 100 kPa, Concentric cylinders viscometry",199.6 ± 5.6 mPa·s
same,viscosity,"283.15 K, 100 kPa, Falling or rolling sphere viscometry",201.3 ± 9.7 mPa·s and 200.4 ± 9.7 mPa·s
same,electrical conductivity,"283.15 K, 100 kPa, Frequency=0 MHz",0.076 ± 0.0015 S/m
same,mass density,"283.15 K, 100 kPa",1315.3 ± 1.9 kg/m3 [middle of 4 runs]
same,electrical conductivity,"283.15 K, 101.33 kPa",0.0756 S/m and 0.076 S/m and 0.0755 S/m
same,electrical conductivity,"283.15 K, 1200 kPa, Frequency=0 MHz",0.0749 ± 0.0015 S/m
same,electrical conductivity,"283.15 K, 3100 kPa, Frequency=0 MHz",0.0728 ± 0.0015 S/m
same,electrical conductivity,"283.15 K, 5100 kPa, Frequency=0 MHz",0.0709 ± 0.0014 S/m
same,viscosity,"283.15 K, 10600 kPa, Falling or rolling sphere viscometry",228.6 ± 12 mPa·s
same,electrical conductivity,"283.15 K, 15400 kPa, Frequency=0 MHz",0.0618 ± 0.0012 S/m
same,electrical conductivity,"283.15 K, 20500 kPa, Frequency=0 MHz",0.0578 ± 0.0012 S/m
same,viscosity,"283.15 K, 20600 kPa, Falling or rolling sphere viscometry",263 ± 15 mPa·s
same,electrical conductivity,"283.15 K, 25600 kPa, Frequency=0 MHz",0.054 ± 0.0011 S/m
same,viscosity,"283.15 K, 30300 kPa, Falling or rolling sphere viscometry",302.4 ± 19 mPa·s
same,electrical conductivity,"283.15 K, 30600 kPa, Frequency=0 MHz",0.0507 ± 0.001 S/m
same,viscosity,"283.15 K, 40800 kPa, Falling or rolling sphere viscometry",352.7 ± 24 mPa·s
same,electrical conductivity,"283.15 K, 42000 kPa, Frequency=0 MHz",0.0437 ± 0.00088 S/m
same,electrical conductivity,"283.15 K, 50300 kPa, Frequency=0 MHz",0.0394 ± 0.00079 S/m
same,viscosity,"283.15 K, 50700 kPa, Falling or rolling sphere viscometry",398.9 ± 28 mPa·s
same,viscosity,"283.15 K, 60900 kPa, Falling or rolling sphere viscometry",459.1 ± 35 mPa·s
same,viscosity,"283.15 K, 71400 kPa, Falling or rolling sphere viscometry",527.1 ± 42 mPa·s
same,electrical conductivity,"283.15 K, 74900 kPa, Frequency=0 MHz",0.0294 ± 0.00059 S/m
same,viscosity,"283.15 K, 80400 kPa, Falling or rolling sphere viscometry",599.8 ± 51 mPa·s
same,viscosity,"283.15 K, 88200 kPa, Falling or rolling sphere viscometry",667.7 ± 59 mPa·s
same,viscosity,"283.15 K, 94700 kPa, Falling or rolling sphere viscometry",740.8 ± 68 mPa·s
same,electrical conductivity,"283.15 K, 99800 kPa, Frequency=0 MHz",0.0219 ± 0.00044 S/m
same,electrical conductivity,"283.15 K, 126100 kPa, Frequency=0 MHz",0.016 ± 0.00032 S/m
same,electrical conductivity,"283.16 K, 2100 kPa, Frequency=0 MHz",0.0741 ± 0.0015 S/m
same,electrical conductivity,"283.16 K, 10300 kPa, Frequency=0 MHz",0.0661 ± 0.0013 S/m
same,electrical conductivity,"283.16 K, 199900 kPa, Frequency=0 MHz",0.00703 ± 0.00014 S/m
same,viscosity,"288.15 K, 100 kPa, Concentric cylinders viscometry",148 ± 3.9 mPa·s
same,mass density,"288.15 K, 100 kPa",1311.35 ± 1.9 kg/m3 and 1311 ± 1.9 kg/m3 and 1310.72 ± 1.3 kg/m3
same,electrical conductivity,"288.16 K, 101.33 kPa",0.1 S/m
same,viscosity,"293.15 K, 100 kPa, Concentric cylinders viscometry",111.8 ± 2.7 mPa·s and 112.2 ± 2.8 mPa·s and 112 ± 2.7 mPa·s
same,viscosity,"293.15 K, 100 kPa, Falling or rolling sphere viscometry",112.7 ± 3.8 mPa·s
same,mass density,"293.15 K, 100 kPa",1306.8 ± 1.8 kg/m3 [middle of 4 runs]
same,electrical conductivity,"293.15 K, 101.33 kPa",0.13 S/m
same,electrical conductivity,"298.14 K, 176500 kPa, Frequency=0 MHz",0.0255 ± 0.00051 S/m
same,viscosity,"298.15 K, 100 kPa, Concentric cylinders viscometry",86.33 ± 2 mPa·s
same,viscosity,"298.15 K, 100 kPa, Falling or rolling sphere viscometry",87.05 ± 3.3 mPa·s and 87.04 ± 3.3 mPa·s and 87.45 ± 3.4 mPa·s
same,electrical conductivity,"298.15 K, 100 kPa, Frequency=0 MHz",0.165 ± 0.0033 S/m
same,mass density,"298.15 K, 100 kPa",1302.45 ± 1.8 kg/m3 [middle of 6 runs]
same,electrical conductivity,"298.15 K, 101.33 kPa",0.166 S/m and 0.165 S/m
same,viscosity,"298.15 K, 600 kPa, Falling or rolling sphere viscometry",86.57 ± 2.4 mPa·s
same,mass density,"298.15 K, 1000 kPa",1302.82 ± 1.3 kg/m3
same,electrical conductivity,"298.15 K, 3400 kPa, Frequency=0 MHz",0.159 ± 0.0032 S/m
same,mass density,"298.15 K, 5000 kPa",1305.75 ± 1.3 kg/m3
same,electrical conductivity,"298.15 K, 5100 kPa, Frequency=0 MHz",0.155 ± 0.0031 S/m
same,electrical conductivity,"298.15 K, 9800 kPa, Frequency=0 MHz",0.146 ± 0.0029 S/m
same,mass density,"298.15 K, 10000 kPa",1309.28 ± 1.3 kg/m3
same,viscosity,"298.15 K, 10500 kPa, Falling or rolling sphere viscometry",99.67 ± 3.1 mPa·s
same,electrical conductivity,"298.15 K, 15000 kPa, Frequency=0 MHz",0.138 ± 0.0028 S/m
same,mass density,"298.15 K, 15000 kPa",1312.76 ± 1.4 kg/m3
same,mass density,"298.15 K, 20000 kPa",1316.13 ± 1.4 kg/m3
same,viscosity,"298.15 K, 20500 kPa, Falling or rolling sphere viscometry",114.4 ± 3.9 mPa·s
same,electrical conductivity,"298.15 K, 20900 kPa, Frequency=0 MHz",0.129 ± 0.0026 S/m
same,mass density,"298.15 K, 25000 kPa",1319.42 ± 1.4 kg/m3
same,electrical conductivity,"298.15 K, 25800 kPa, Frequency=0 MHz",0.122 ± 0.0024 S/m
same,mass density,"298.15 K, 30000 kPa",1322.62 ± 1.4 kg/m3
same,viscosity,"298.15 K, 30600 kPa, Falling or rolling sphere viscometry",130.4 ± 4.9 mPa·s
same,electrical conductivity,"298.15 K, 31200 kPa, Frequency=0 MHz",0.114 ± 0.0023 S/m
same,mass density,"298.15 K, 35000 kPa",1325.82 ± 1.5 kg/m3
same,mass density,"298.15 K, 40000 kPa",1328.9 ± 1.5 kg/m3
same,viscosity,"298.15 K, 40500 kPa, Falling or rolling sphere viscometry",148 ± 6 mPa·s
same,electrical conductivity,"298.15 K, 41000 kPa, Frequency=0 MHz",0.102 ± 0.002 S/m
same,mass density,"298.15 K, 45000 kPa",1331.96 ± 1.6 kg/m3
same,mass density,"298.15 K, 50010 kPa",1334.83 ± 1.6 kg/m3
same,viscosity,"298.15 K, 50500 kPa, Falling or rolling sphere viscometry",167.4 ± 7.3 mPa·s
same,electrical conductivity,"298.15 K, 51100 kPa, Frequency=0 MHz",0.0914 ± 0.0018 S/m
same,electrical conductivity,"298.15 K, 56700 kPa, Frequency=0 MHz",0.0859 ± 0.0017 S/m
